Reference: US11530244B2, “Cyclic polypeptides for PCSK9 inhibition” (priority 2018, dated 2022)
Read-outs that look alike come from different tables or passages of the source. Starred links: 1 amine or outer side, 2 acyl side, 3 side chain; linkers in the order of their positions; H or OH if unused. Positions of bridges follow the written chain, without caps; N, C: chain ends. Non-standard residues stand in square brackets, D forms with d. Residues, ends and D or L forms follow the SMILES beside them. *: point of attachment. NHCH2C6H4(p)CH2CH2NH = c1cc(CN[*:1])ccc1CCN[*:2]; Trp(5-F) = N[C@@H](Cc1c[nH]c2ccc(F)cc12)C(=O)O; Acetyl(2-(4-imidazolyl)) = O=C(Cc1c[nH]cn1)*; Phe(4-CH2NH2) = NCc1ccc(C[C@H](N)C(=O)O)cc1; dPro(cis-4-NH2) = N[C@H]1CN[C@@H](C(=O)O)C1; X3 = O=C(CCSCc1cc(F)cc(CSCCN[*:1])c1)[*:2]; Heptanedioyl = O=C(CCCCCC(=O)[*:2])[*:1]; Pro(cis-4-F) = O=C(O)[C@@H]1C[C@H](F)CN1; X4 = O=C(CCSCc1cccc(CSCCN[*:1])c1)[*:2]; mXylylene = c1cc(C[*:1])cc(C[*:2])c1; AEF = NCCOc1ccc(C[C@H](N)C(=O)O)cc1; Adipoyl = O=C(CCCCC(=O)[*:2])[*:1]; cisHyp = O=C(O)[C@@H]1C[C@H](O)CN1; Hyp = O=C(O)[C@@H]1C[C@@H](O)CN1; Aad = N[C@@H](CCCC(=O)O)C(=O)O; aThr = C[C@H](O)[C@H](N)C(=O)O; Suc = O=C(CCC(=O)[*:2])[*:1]; X63 = c1ncc(C[*:2])nc1C[*:1]; αMeP = C[C@@]1(C(=O)O)CCCN1; 3Amb = NCc1cccc(C(=O)O)c1; Isovaleryl = CC(C)CC(=O)*; Dap = NC[C@H](N)C(=O)O; X2 = O=C(C[*:2])[*:1]; X62 = O=C(C(F)F)*; Mpa = O=C(O)CCS

Target: PCSK9 (Homo sapiens (Human), UniProt Q8NBP7)
Sequence (Q8NBP7 153-692): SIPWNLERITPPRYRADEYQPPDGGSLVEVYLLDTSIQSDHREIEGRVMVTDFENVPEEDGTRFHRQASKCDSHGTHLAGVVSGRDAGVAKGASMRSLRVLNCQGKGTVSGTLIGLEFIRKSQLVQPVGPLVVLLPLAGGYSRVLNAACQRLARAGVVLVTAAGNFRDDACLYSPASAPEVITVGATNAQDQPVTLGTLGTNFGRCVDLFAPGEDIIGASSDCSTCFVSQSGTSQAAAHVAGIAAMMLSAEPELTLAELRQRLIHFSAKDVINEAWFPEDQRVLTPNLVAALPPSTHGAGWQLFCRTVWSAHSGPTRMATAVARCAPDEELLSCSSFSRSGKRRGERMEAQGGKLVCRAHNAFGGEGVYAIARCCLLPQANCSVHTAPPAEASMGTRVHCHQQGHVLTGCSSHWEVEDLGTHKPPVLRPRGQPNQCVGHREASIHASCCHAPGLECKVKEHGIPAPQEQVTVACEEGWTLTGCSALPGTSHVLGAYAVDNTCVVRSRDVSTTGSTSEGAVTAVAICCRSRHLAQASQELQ
Test: PCSK9 Alexa FRET Standard assay (displacement of AlexaFluor647 tagged cyclic peptide Reagent A)
Format: binding
Conditions: 0.5 nM PCSK9, 20 nM AF cyclic peptide Reagent A
Method: A solution containing 1 nM biotinylated PCSK9+2.5 nM Lance Streptavidin Europium (Strep-Eu) was made in 50 mM HEPES pH 7.4, 0.15 M NaCl, 5 mM CaCl2), 0.01% BSA, and 0.01% Surfactant P20. A separate solution containing 40 nM of the AlexaFluor tagged cyclic peptide was made in the same buffer system. An Echo was used to transfer 0.750 ul of compound to an assay plate followed by the addition of 15 ul of PCSK9+Stept-Eu and 15 ul of AF peptide. The final assay volume was 30.750 ul containing 0.5 nM PCSK9, 1.25 nM Strep-Eu, and 20 nM AF cyclic peptide. The reaction was incubated at room temperature for at least two hours prior to fluorescence measurements using an Envision Multilabel Reader. IC50 values were determined by fitting data to a sigmoidal dose-response curve using nonlinear regression. Ki was then calculated from the IC50 and the KD of AF cyclic peptide. Counts (B-counts) of the europium-labeled PCSK9 were followed to observe if compounds were […]. A fall off of the B-counts likely indicated a false positive of inhibition. Data from this procedure was reported as “A=‘numerical value’ (nanomolar)”

[1] = PCSK9 Alexa FRET Standard assay, read-out: IC50
[2] = IC50, PCSK9 Alexa FRET Standard assay

| IC50 [1] [µM] | Compound | other results |
| --- | --- | --- |
| 0.1 to 1 | C[C@@]12CCCN1C(=O)[C@H](Cc1ccc(O)cc1)NC(=O)c1cccc(c1)CNC(=O)[C@H](Cc1c[nH]c3ccc(F)cc13)NC(=O)[C@H](Cc1c[nH]c3ccc(F)cc13)NC(=O)CNC(=O)[C@H](CCCCN)NC(=O)CCSCc1cccc(c1)CSC[C@@H](C(N)=O)NC2=O [Compound 088] ([Mpa]KG[Trp(5-F)][Trp(5-F)][3Amb]Y[αMeP]C-NH2; linker 1-9 via mXylylene) | – |
| 1 to 12.1 | COc1ccc(C[C@@H]2NC(=O)[C@H]([C@@H](C)O)NC(=O)[C@@H]3CCCN3C(=O)[C@H](Cc3c[nH]c4ccc(F)cc34)NC(=O)[C@H](Cc3c[nH]c4ccc(F)cc34)NC(=O)[C@@H](C)NC(=O)[C@H](CCCCN)NC(=O)CCSCc3cncc(n3)CSC[C@@H](C(N)=O)NC(=O)[C@]3(C)CCCN3C2=O)cc1 [Compound 090] ([Mpa]K[dA][Trp(5-F)][Trp(5-F)]PTY(Me)[αMeP]C-NH2; linker 1-10 via X63) | – |
| 21 to 50 | COc1ccc(C[C@@H]2NC(=O)[C@H]([C@@H](C)O)NC(=O)[C@@H]3C[C@H](F)CN3C(=O)[C@H](Cc3c[nH]c4ccc(F)cc34)NC(=O)[C@H](Cc3c[nH]c4ccc(F)cc34)NC(=O)[C@@H](C)NC(=O)[C@H](CCCCN)NC(=O)[C@@H](NC(C)=O)CNC(=O)COc3ccc(cc3)C[C@@H](C(N)=O)NC(=O)[C@]3(C)CCCN3C2=O)cc1 [Compound 094] (Ac-[Dap]K[dA][Trp(5-F)][Trp(5-F)][Pro(cis-4-F)]TY(Me)[αMeP]Y-NH2; linker 1-10 via X2) | – |
| 21 to 50 | COc1ccc(C[C@@H]2NC(=O)[C@H]([C@@H](C)O)NC(=O)[C@@H]3C[C@H](F)CN3C(=O)[C@H](Cc3c[nH]c4ccc(F)cc34)NC(=O)[C@H](Cc3c[nH]c4ccc(F)cc34)NC(=O)[C@@H](C)NC(=O)[C@H](CCCCN)NC(=O)CCC(=O)NCCOc3ccc(cc3)C[C@@H](C(N)=O)NC(=O)[C@]3(C)CCCN3C2=O)cc1 [Compound 098] (K[dA][Trp(5-F)][Trp(5-F)][Pro(cis-4-F)]TY(Me)[αMeP][AEF]-NH2; linker N-9 via Suc) | – |
| 21 to 50 | COc1ccc(C[C@@H]2NC(=O)[C@H]([C@H](C)O)NC(=O)[C@@H]3C[C@H](F)CN3C(=O)[C@H](Cc3c[nH]c4ccc(F)cc34)NC(=O)[C@H](Cc3c[nH]c4ccc(F)cc34)NC(=O)[C@@H](C)NC(=O)CCCCC(=O)NCCOc3ccc(cc3)C[C@@H](C(N)=O)NC(=O)[C@]3(C)CCCN3C2=O)cc1 [Compound 099] ([dA][Trp(5-F)][Trp(5-F)][Pro(cis-4-F)][aThr]Y(Me)[αMeP][AEF]-NH2; linker N-8 via Adipoyl) | – |
| 21 to 50 | C[C@@]12CCCN1C(=O)[C@H](Cc1ccc(O)cc1)NC(=O)CN1CCCC[C@H](NC(=O)[C@H](Cc3c[nH]c4ccc(F)cc34)NC(=O)[C@H](Cc3c[nH]c4ccc(F)cc34)NC(=O)CNC(=O)[C@H](CCCCN)NC(=O)CCSCc3cccc(c3)CSC[C@@H](C(N)=O)NC2=O)C1=O [Compound 104] | – |
| – | COc1ccc(C[C@@H]2NC(=O)[C@H]([C@@H](C)O)NC(=O)[C@@H]3C[C@H](F)CN3C(=O)[C@H](Cc3c[nH]c4ccc(F)cc34)NC(=O)[C@H](Cc3c[nH]c4ccc(F)cc34)NC(=O)[C@@H](C)NC(=O)[C@H](CCCCN)NC(=O)[C@@H](NC(=O)Cc3cnc[nH]3)CC(=O)NCCOc3ccc(cc3)C[C@@H](C(N)=O)NC(=O)[C@]3(C)CCCN3C2=O)cc1 [Compound 105] ({Acetyl(2-(4-imidazolyl))}-DK[dA][Trp(5-F)][Trp(5-F)][Pro(cis-4-F)]TY(Me)[αMeP][AEF]-NH2; lactam 1-10) | IC50 [2]: 1 to 12.1 µM |
| – | COc1ccc(C[C@@H]2NC(=O)[C@H]([C@@H](C)O)NC(=O)[C@@H]3C[C@H](F)CN3C(=O)[C@H](Cc3c[nH]c4ccc(F)cc34)NC(=O)[C@H](Cc3c[nH]c4ccc(F)cc34)NC(=O)[C@@H](C)NC(=O)[C@H](CCCCN)NC(=O)[C@@H](NC(=O)Cc3cnc[nH]3)CC(=O)NCCOc3ccc(cc3)C[C@@H](C(N)=O)NC(=O)[C@]3(C)CCCN3C2=O)cc1 [Compound 106] ({Acetyl(2-(4-imidazolyl))}-DK[dA][Trp(5-F)][Trp(5-F)][Pro(cis-4-F)]TY(Me)[αMeP][AEF]-NH2; lactam 1-10) | IC50 (PCSK9 Alexa FRET Standard assay): 1 to 12.1 µM |
| 0.1 to 1 | COc1ccc(C[C@@H]2NC(=O)[C@H]([C@@H](C)O)NC(=O)[C@@H]3C[C@H](F)CN3C(=O)[C@H](Cc3c[nH]c4ccc(F)cc34)NC(=O)[C@H](Cc3c[nH]c4ccc(F)cc34)NC(=O)[C@@H](C)NC(=O)[C@H](CCCCN)NC(=O)[C@@H](NC(=O)CC(C)C)CC(=O)NCCOc3ccc(cc3)C[C@@H](C(N)=O)NC(=O)[C@]3(C)CCCN3C2=O)cc1 [Compound 107] (Isovaleryl-DK[dA][Trp(5-F)][Trp(5-F)][Pro(cis-4-F)]TY(Me)[αMeP][AEF]-NH2; lactam 1-10) | – |
| 21 to 50 | C[C@@]12CCCN1C(=O)[C@H](Cc1ccc(O)cc1)NC(=O)CN1C(=O)[C@H](CCc3ccccc31)NC(=O)[C@H](Cc1c[nH]c3ccc(F)cc13)NC(=O)[C@H](Cc1c[nH]c3ccc(F)cc13)NC(=O)CNC(=O)[C@H](CCCCN)NC(=O)CCSCc1cccc(c1)CSC[C@@H](C(N)=O)NC2=O [Compound 110] | – |
| – | COc1ccc(C[C@@H]2NC(=O)[C@H]([C@@H](C)O)NC(=O)[C@@H]3C[C@H](F)CN3C(=O)[C@H](Cc3c[nH]c4ccc(F)cc34)NC(=O)[C@H](Cc3c[nH]c4ccc(F)cc34)NC(=O)[C@@H](C)NC(=O)[C@H](CCCCN)NC(=O)[C@@H](NC(=O)C(F)F)CC(=O)NCCOc3ccc(cc3)C[C@@H](C(N)=O)NC(=O)[C@]3(C)CCCN3C2=O)cc1 [Compound 113] (X62-DK[dA][Trp(5-F)][Trp(5-F)][Pro(cis-4-F)]TY(Me)[αMeP][AEF]-NH2; lactam 1-10) | IC50 [2]: 21 to 50 µM |
| 0.1 to 1 | CC(C)C[C@H]1C(=O)N[C@@H](Cc2ccc(O)cc2)C(=O)N2CCC[C@@]2(C)C(=O)N[C@H](C(N)=O)CSCc2cccc(c2)CSCCC(=O)N[C@@H](CCCCN)C(=O)NCC(=O)N[C@@H](Cc2c[nH]c3ccc(F)cc23)C(=O)N[C@@H](Cc2c[nH]c3ccc(F)cc23)C(=O)N2CCC[C@@]23CCN1C3=O [Compound 127] | – |

| Compound | IC50 [1] [µM] | other results |
| --- | --- | --- |
| COc1ccc(C[C@@H]2NC(=O)[C@@H]([C@H](C)O)NC(=O)[C@H]3C[C@@H](N)CN3C(=O)[C@H](Cc3c[nH]c4ccc(F)cc34)NC(=O)[C@H](Cc3c[nH]c4ccc(F)cc34)NC(=O)[C@@H](C)NC(=O)[C@H](CCCCN)NC(=O)CCSCc3cccc(c3)CSCCNC(=O)[C@]3(C)CCCN3C2=O)cc1 [Compound 083] (cyclo(K[dA][Trp(5-F)][Trp(5-F)][dPro(cis-4-NH2)][dT]Y(Me)[αMeP][X4])) | 0.1 to 1 | – |
| COc1ccc(C[C@@H]2NC(=O)[C@@H]([C@H](C)O)NC(=O)[C@@H]3C[C@@H](O)CN3C(=O)[C@H](Cc3c[nH]c4ccc(F)cc34)NC(=O)[C@H](Cc3c[nH]c4ccc(F)cc34)NC(=O)[C@@H](C)NC(=O)[C@H](CCCCN)NC(=O)CCSCc3cccc(c3)CSCCNC(=O)[C@]3(C)CCCN3C2=O)cc1 [Compound 084] (cyclo([Hyp][dT]Y(Me)[αMeP][X4]K[dA][Trp(5-F)][Trp(5-F)])) | 0.1 to 1 | – |
| COc1ccc(C[C@@H]2NC(=O)[C@@H]([C@H](C)O)NC(=O)[C@@H]3C[C@H](O)CN3C(=O)[C@H](Cc3c[nH]c4ccc(F)cc34)NC(=O)[C@H](Cc3c[nH]c4ccc(F)cc34)NC(=O)[C@@H](C)NC(=O)[C@H](CCCCN)NC(=O)CCSCc3cccc(c3)CSCCNC(=O)[C@]3(C)CCCN3C2=O)cc1 [Compound 085] (cyclo(K[dA][Trp(5-F)][Trp(5-F)][cisHyp][dT]Y(Me)[αMeP][X4])) | 21 to 50 | – |
| COc1ccc(C[C@@H]2NC(=O)[C@@H]([C@H](C)O)NC(=O)[C@@H]3C[C@H](O)CN3C(=O)[C@H](Cc3c[nH]c4ccc(F)cc34)NC(=O)[C@H](Cc3c[nH]c4ccc(F)cc34)NC(=O)[C@@H](C)NC(=O)[C@H](CCCCN)NC(=O)CCSCc3cc(F)cc(c3)CSCCNC(=O)[C@]3(C)CCCN3C2=O)cc1 [Compound 086] (cyclo(K[dA][Trp(5-F)][Trp(5-F)][cisHyp][dT]Y(Me)[αMeP][X3])) | 21 to 50 | – |
| COc1ccc(C[C@@H]2NC(=O)[C@@H]([C@H](C)O)NC(=O)[C@@H]3C[C@@H](O)CN3C(=O)[C@H](Cc3c[nH]c4ccc(F)cc34)NC(=O)[C@H](Cc3c[nH]c4ccc(F)cc34)NC(=O)[C@@H](C)NC(=O)[C@H](CCCCN)NC(=O)CCSCc3cc(F)cc(c3)CSCCNC(=O)[C@]3(C)CCCN3C2=O)cc1 [Compound 087] (cyclo([Hyp][dT]Y(Me)[αMeP][X3]K[dA][Trp(5-F)][Trp(5-F)])) | 21 to 50 | – |
| COc1ccc(C[C@@H]2NC(=O)[C@H]([C@@H](C)O)NC(=O)[C@@H]3C[C@H](F)CN3C(=O)[C@H](Cc3c[nH]c4ccc(F)cc34)NC(=O)[C@H](Cc3c[nH]c4ccc(F)cc34)NC(=O)[C@@H](C)NC(=O)[C@H](CCCCN)NC(=O)[C@@H](NC(C)=O)CCCC(=O)NCc3ccc(cc3)CCNC(=O)[C@]3(C)CCCN3C2=O)cc1 [Compound 096] (Ac-[Aad]K[dA][Trp(5-F)][Trp(5-F)][Pro(cis-4-F)]TY(Me)[αMeP]; linker 1-C via NHCH2C6H4(p)CH2CH2NH) | 0.1 to 1 | – |
| COc1ccc(C[C@@H]2NC(=O)[C@H]([C@@H](C)O)NC(=O)[C@@H]3C[C@H](F)CN3C(=O)[C@H](Cc3c[nH]c4ccc(F)cc34)NC(=O)[C@H](Cc3c[nH]c4ccc(F)cc34)NC(=O)[C@@H](C)NC(=O)CCCCCC(=O)NCc3ccc(cc3)C[C@@H](C(N)=O)NC(=O)[C@]3(C)CCCN3C2=O)cc1 [Compound 125] ([dA][Trp(5-F)][Trp(5-F)][Pro(cis-4-F)]TY(Me)[αMeP][Phe(4-CH2NH2)]-NH2; linker N-8 via Heptanedioyl) | 21 to 50 | – |
